Test [1] concerns human lung cancer cell line A549. The test can be described thus: CCK-8 antiproliferative assay, A549. In kind it is cell-based. Particulars: CCK-8, 48 h, mean ± SD of three experiments. The procedure: (§1) The antiproliferative activities of target compounds were examined by CCK-8 assay in three cancer cells (human lung cancer cell line A549, human mammary gland tumour cell line MCF-7 and human TNBC cell line MDA-MB-231) and one normal cell (human normal breast cell line MCF10A). All cell lines were sourced from KeyGEN Biotech, […], China, and a standard DMEM medium was applied to all cell cultures then subjected to 24 h incubation at 37 °C in a humidified environment with 5% CO2. After that logarithmic growing cells were plated on 96-well plates with 8,000 cells per well in a […] medium for 24 h incubation at 37 °C with 5% CO2. The DMEM medium with bovine serum was removed from each well. Then, prerequisite target compounds and positive controls were added to different cell lines in a predetermined concentration regiment for 48 h culture.

In test [2] the test system is human mammary gland tumour cell line MCF-7. The test can be described thus: CCK-8 antiproliferative assay, MCF-7. It counts as cell-based. The settings on record: for IC50: Homo sapiens, read-out: IC50 MCF-7; for SI MCF-7 (selectivity index): SI = IC50(MCF-10A)/IC50(MCF-7). As for the experimental part:
as §1

Test [3] has as its system human TNBC cell line MDA-MB-231. Kind of test: CCK-8 antiproliferative assay, MDA-MB-231. In kind it is cell-based. Particulars: for IC50: Homo sapiens, read-out: IC50 MDA-MB-231; for SI MDA-MB-231 (selectivity index): SI = IC50(MCF-10A)/IC50(MDA-MB-231). The procedure: as §1
Test [4] concerns human normal breast cell line MCF10A. Kind of test: CCK-8 assay, normal cells MCF10A. It counts as cell-based. The settings on record: MCF-10A, CCK-8, 48 h, mean ± SD of three experiments. As for the experimental part:
as §1

Test [5] is described as follows: Griess assay, NO-releasing capacity. Particulars: 10^−4 mol/l compound, L-cysteine, 37 °C; for NO peak releasing: 15-180 min. The procedure: The NO-releasing capacity of each target compound was determined by the colorimetric method under the instructions of the manufacturer. Preparation of standard curves of 0, 1.56, 3.13, 6.25, 12.5, 25, 50 and 100 μmol/L nitrite nitrogen series standard solution was prepared. 50 μL to 96-well plate was added respectively and then mixed with 50 μL Griess I and Griess II; the absorption value was measured at 540 nm wavelength. A standard curve was drawn from the obtained data. Compounds were formulated into 10^−4 mol/l with PBS (pH = 7.4) and pharmaceutical DMSO. The newly formulated L-cysteine solution 100 μL ([…]) was added and incubated at 37 °C for 15, 30, 45, 60, 90, 120, 150 and180 min, respectively. Griess I and II recovered to room temperature, 50 μL of compounds 7A–E(a–c) were added respectively into the 96-well plate, and then 50 μL of Griess I and 50 μL of Griess II were added in sequence, with the absorbance tested at 540 nm. The amount of NO released was then calculated according to the standard curve.

Structures are written as SMILES. Where two headings read alike, the source gives them in different places.

For `COC1=CC2[C@H]3Cc4ccc(OC)c(OC(=O)CCC(=O)OCCOc5no[n+]([O-])c5S(=O)(=O)c5ccccc5)c4[C@@]2(CCN3C)CC1=O` (stereo partly drawn) [7Aa, 4–(2-((4-(((4bs,9R)-3,7-Dimethoxy-11-methyl-6-oxo-6,8a,9,10-tetrahydro-5H-9,4b-(epiminoethano)phenanthren-4-yl)oxy)-4-oxobutanoyl)oxy)ethoxy)-3-(phenylsulfonyl)-1,2,5-oxadiazole 2-oxide], the IC50 in test [1] (Homo sapiens, A549) is 15.2 ± 1.37 µM; in test [2] (MCF7, 48 h), 26.4 ± 1.25 µM; in test [3] (MDA-MB-231, 48 h) it was 31.5 ± 2.77 µM; in test [4] it was over 50 µM. In test [2], the “SI MCF-7 (selectivity index)” value was over 1.89. Moreover, in test [3], the “SI MDA-MB-231 (selectivity index)” value was over 1.58. The NO peak releasing entry in test [5] is given as “exceeding 40 μmol/L”.

Regarding `COC1=CC2[C@H]3Cc4ccc(OC)c(OC(=O)CCCC(=O)OCCOc5no[n+]([O-])c5S(=O)(=O)c5ccccc5)c4[C@@]2(CCN3C)CC1=O` (stereo partly drawn) [7Ab, 4–(2-((5-(((4bs,9R)-3,7-Dimethoxy-11-methyl-6-oxo-6,8a,9,10-tetrahydro-5H-9,4b-(epiminoethano)phenanthren-4-yl)oxy)-5-oxopentanoyl)oxy)ethoxy)-3-(phenylsulfonyl)-1,2,5-oxadiazole 2-oxide], the IC50 in test [1] (Homo sapiens, A549) is 9.41 ± 0.68 µM; in test [2] (MCF7, 48 h), 15.3 ± 0.94 µM; in test [3] (MDA-MB-231, 48 h), 29.6 ± 1.8 µM; in test [4], over 50 µM. The “SI MCF-7 (selectivity index)” value in test [2] is listed as over 3.27. Also, the “SI MDA-MB-231 (selectivity index)” value in test [3] is given as over 1.69.

For `COC1=CC2[C@H]3Cc4ccc(OC)c(OC(=O)c5ccccc5C(=O)OCCOc5no[n+]([O-])c5S(=O)(=O)c5ccccc5)c4[C@@]2(CCN3C)CC1=O` (stereo partly drawn) [7Ac, 4–(2-((2-((((4bs,9R)-3,7-Dimethoxy-11-methyl-6-oxo-6,8a,9,10-tetrahydro-5H-9,4b-(epiminoethano)phenanthren-4-yl)oxy)carbonyl)benzoyl)oxy)ethoxy)-3-(phenylsulfonyl)-1,2,5-oxadiazole 2-oxide], the IC50 in test [1] (Homo sapiens, A549) amounted to 2.33 ± 0.15 µM; in test [2] (MCF7, 48 h), 5.87 ± 0.42 µM; in test [3] (MDA-MB-231, 48 h), 1.62 ± 0.15 µM; in test [4], 21.5 ± 0.88 µM. Further, in test [2], the “SI MCF-7 (selectivity index)” value turned out to be 3.67. Besides, the “SI MDA-MB-231 (selectivity index)” value in test [3] is 13.30. Further, in test [5], the NO peak releasing result is on record as “exceeding 40 μmol/L”.

For the compound `COC1=CC2C3Cc4ccc(OC)c(OC(=O)CCC(=O)OCCCOc5no[n+]([O-])c5S(=O)(=O)c5ccccc5)c4C2(CCN3C)CC1=O` (stereo not drawn) [7Ba], the IC50 in test [1] (Homo sapiens, A549) is 9.84 ± 0.47 µM; in test [2] (MCF7, 48 h) it was 19 ± 1.33 µM; in test [3] (MDA-MB-231, 48 h), 24.2 ± 1.97 µM; in test [4], over 50 µM. In addition, the “SI MCF-7 (selectivity index)” value in test [2] was over 2.64. For the same compound, the “SI MDA-MB-231 (selectivity index)” value in test [3] is listed as over 2.06. The “NO release at 180 min” value in test [5] (180 min) was 68.4 µmol/L.

Regarding `COC1=CC2[C@H]3Cc4ccc(OC)c(OC(=O)CCCC(=O)OCCCOc5no[n+]([O-])c5S(=O)(=O)c5ccccc5)c4[C@@]2(CCN3C)CC1=O` (stereo partly drawn) [7Bb, 4–(3-((5-(((4bs,9R)-3,7-Dimethoxy-11-methyl-6-oxo-6,8a,9,10-tetrahydro-5H-9,4b-(epiminoethano)phenanthren-4-yl)oxy)-5-oxopentanoyl)oxy)propoxy)-3-(phenylsulfonyl)-1,2,5-oxadiazole 2-oxide], the IC50 in test [1] (Homo sapiens, A549) was 4.91 ± 0.3 µM; in test [2] (MCF7, 48 h), 19.7 ± 1.28 µM; in test [3] (MDA-MB-231, 48 h), 16.4 ± 1.55 µM; in test [4], over 50 µM. Also, the “SI MCF-7 (selectivity index)” value in test [2] was over 2.54. Further, in test [3], the “SI MDA-MB-231 (selectivity index)” value was over 3.04.

Regarding `COC1=CC2[C@H]3Cc4ccc(OC)c(OC(=O)c5ccccc5C(=O)OCCCOc5no[n+]([O-])c5S(=O)(=O)c5ccccc5)c4[C@@]2(CCN3C)CC1=O` (stereo partly drawn) [7Bc, 4–(3-((2-((((4bs,9R)-3,7-Dimethoxy-11-methyl-6-oxo-6,8a,9,10-tetrahydro-5H-9,4b-(epiminoethano)phenanthren-4-yl)oxy)carbonyl)benzoyl)oxy)propoxy)-3-(phenylsulfonyl)-1,2,5-oxadiazole 2-oxide], the IC50 was 5.05 ± 0.21 µM in test [1] (Homo sapiens, A549); 12.2 ± 0.92 µM in test [2] (MCF7, 48 h); 18.7 ± 0.61 µM in test [3] (MDA-MB-231, 48 h); over 50 µM in test [4]. The “SI MCF-7 (selectivity index)” value in test [2] is listed as over 4.11. Also, in test [3], the “SI MDA-MB-231 (selectivity index)” value was over 2.67.

Turning to `COC1=CC2[C@H]3Cc4ccc(OC)c(OC(=O)CCCC(=O)OCCCCOc5no[n+]([O-])c5S(=O)(=O)c5ccccc5)c4[C@@]2(CCN3C)CC1=O` (stereo partly drawn) [7Cb, 4–(4-((5-(((4bs,9R)-3,7-Dimethoxy-11-methyl-6-oxo-6,8a,9,10-tetrahydro-5H-9,4b-(epiminoethano)phenanthren-4-yl)oxy)-5-oxopentanoyl)oxy)butoxy)-3-(phenylsulfonyl)-1,2,5-oxadiazole 2-oxide], the IC50 in test [1] (Homo sapiens, A549) came out at 3.53 ± 0.29 µM; in test [2] (MCF7, 48 h) it was 4.68 ± 0.39 µM; in test [3] (MDA-MB-231, 48 h), 1.47 ± 0.14 µM; in test [4], 36.7 ± 1.02 µM. Further, the “SI MCF-7 (selectivity index)” value in test [2] was 7.84. Besides, the “SI MDA-MB-231 (selectivity index)” value in test [3] was found to be 24.97.

On to `COC1=CC2[C@H]3Cc4ccc(OC)c(OC(=O)CCCC(=O)OCCCCCOc5no[n+]([O-])c5S(=O)(=O)c5ccccc5)c4[C@@]2(CCN3C)CC1=O` (stereo partly drawn) [7Db, 4-((5-((5-(((4bs,9R)-3,7-Dimethoxy-11-methyl-6-oxo-6,8a,9,10-tetrahydro-5H-9,4b-(epiminoethano)phenanthren-4-yl)oxy)-5-oxopentanoyl)oxy)pentyl)oxy)-3-(phenylsulfonyl)-1,2,5-oxadiazole 2-oxide], for which the IC50 in test [1] (Homo sapiens, A549) was determined as 3.92 ± 0.31 µM; in test [2] (MCF7, 48 h) it was 2.94 ± 0.27 µM; in test [3] (MDA-MB-231, 48 h) it was 3.11 ± 0.22 µM; in test [4], 39.5 ± 2.9 µM. Besides, the “SI MCF-7 (selectivity index)” value in test [2] is listed as 13.43. Also, the “SI MDA-MB-231 (selectivity index)” value in test [3] is listed as 12.69.

Take `COC1=CC2[C@H]3Cc4ccc(OC)c(OC(=O)CCC(=O)OCCCCCCOc5no[n+]([O-])c5S(=O)(=O)c5ccccc5)c4[C@@]2(CCN3C)CC1=O` (stereo partly drawn) [7Ea, 4-((6-((4-(((4bs,9R)-3,7-Dimethoxy-11-methyl-6-oxo-6,8a,9,10-tetrahydro-5H-9,4b-(epiminoethano)phenanthren-4-yl)oxy)-4-oxobutanoyl)oxy)hexyl)oxy)-3-(phenylsulfonyl)-1,2,5-oxadiazole 2-oxide]: the IC50 in test [1] (Homo sapiens, A549) was 4.62 ± 0.16 µM; in test [2] (MCF7, 48 h), 25.3 ± 0.9 µM; in test [3] (MDA-MB-231, 48 h) it was 19 ± 0.7 µM; in test [4], 43.6 ± 2.65 µM. Moreover, the “SI MCF-7 (selectivity index)” value in test [2] is 2.79. Further, the “SI MDA-MB-231 (selectivity index)” value in test [3] is reported as 2.30.

For `COC1=CC2[C@H]3Cc4ccc(OC)c(OC(=O)CCCC(=O)OCCCCCCOc5no[n+]([O-])c5S(=O)(=O)c5ccccc5)c4[C@@]2(CCN3C)CC1=O` (stereo partly drawn) [7Eb, 4-((6-((5-(((4bs,9R)-3,7-Dimethoxy-11-methyl-6-oxo-6,8a,9,10-tetrahydro-5H-9,4b-(epiminoethano)phenanthren-4-yl)oxy)-5-oxopentanoyl)oxy)hexyl)oxy)-3-(phenylsulfonyl)-1,2,5-oxadiazole 2-oxide], the IC50 was 4.55 ± 0.43 µM in test [1] (Homo sapiens, A549); 17.9 ± 1.26 µM in test [2] (MCF7, 48 h); 41.5 ± 1.48 µM in test [3] (MDA-MB-231, 48 h); over 50 µM in test [4]. Besides, the “SI MCF-7 (selectivity index)” value in test [2] is reported as over 2.79. Also, the “SI MDA-MB-231 (selectivity index)” value in test [3] is on record as over 1.21.

Regarding `COC1=CC2[C@H]3Cc4ccc(OC)c(OC(=O)c5ccccc5C(=O)OCCCCCCOc5no[n+]([O-])c5S(=O)(=O)c5ccccc5)c4[C@@]2(CCN3C)CC1=O` (stereo partly drawn) [7Ec, 4-((6-((2-((((4bs,9R)-3,7-Dimethoxy-11-methyl-6-oxo-6,8a,9,10-tetrahydro-5H-9,4b-(epiminoethano)phenanthren-4-yl)oxy)carbonyl)benzoyl)oxy)hexyl)oxy)-3-(phenylsulfonyl)-1,2,5-oxadiazole 2-oxide], the IC50 in test [1] (Homo sapiens, A549) worked out at 4.81 ± 0.18 µM; in test [2] (MCF7, 48 h) it was 3.94 ± 0.28 µM; in test [3] (MDA-MB-231, 48 h), 1.81 ± 0.13 µM; in test [4] it was 48.3 ± 3.78 µM. Moreover, the “SI MCF-7 (selectivity index)” value in test [2] is on record as 12.26. The “SI MDA-MB-231 (selectivity index)” value in test [3] amounted to 26.70.

As for `COc1cccc2c1C(=O)c1c(O)c3c(c(O)c1C2=O)C[C@@](O)(C(=O)CO)C[C@@H]3O[C@H]1C[C@H](N)[C@H](O)[C@H](C)O1` [Adriamycin, adriamycin, reference compound], the IC50 in test [2] (MCF7, CCK-8, 48 h, mean ± SD of three experiments) amounted to 5.12 ± 0.31 µM; in test [3] (MDA-MB-231, CCK-8, 48 h, mean ± SD of three experiments) it was 4.92 ± 0.44 µM.

`N.N.[Cl][Pt][Cl]` [Cisplatin, cisplatin, reference compound] returned an IC50 in test [1] of 4.97 ± 0.37 µM.

Values taken from PMC9272937, “Anti-breast cancer sinomenine derivatives via mechanisms of apoptosis induction and metastasis reduction” (Journal of Enzyme Inhibition and Medicinal Chemistry, 2022).
